Key:
[1] = tested on: caspase cascade, human breast cancer cell line T-47D; assay: Caspase cascade activation assay (Example 90), T-47D; assay type: cell-based; settings: 24 h incubation
Procedure: (§1) Human breast cancer cell lines T-47D and ZR-75-1, human prostate cancer cell line PC-3, human leukemia cancer cell line HL-60 and human non-transformed fibroblast cell line MRC-5 cells were grown according to media component mixtures designated by The American Type Culture Collection+10% FCS (Life Technologies, Inc.), in a 5% CO2-95% humidity incubator at 37° C. T-47D, ZR-75-1 and PC-3 cells were maintained at a cell density between 30 and 80% confluency and for HL-60 at a cell density of 0.1 to 0.6×10^6 cells/m. Cells were harvested at 600× g and resuspended at 0.65×10^6 cells/ml into appropriate media +10% FCS. […] The samples were mixed by agitation and incubated at room temperature.
(§2) The EC50 (nM) was determined by a sigmoidal dose-response calculation (Prism 2.0, GraphPad Software Inc.).

[2] = tested on: caspase cascade, human prostate cancer cell line PC-3; assay: Caspase cascade activation assay (Example 90), PC-3; assay type: cell-based; settings: 24 h incubation
Procedure: as §1, §2

T-47D cells = assay: Inhibition of cell proliferation (GI50) and cell death (LC50), T-47D; assay type: cell-based; settings: Homo sapiens, T47D, 48 h; for CC50: read-out: LC50 (dose for 50% cell death); for GI50: T-47D, read-out: GI50 (dose for 50% inhibition of cell proliferation)
Procedure: (§3) T47D, ZR-75-1, PC-3, human prostate cancer cell line DU-145, human non-small cell lung cancer cell line A-549, human small cell lung cancer cell line SHP-77, HL-60 and MRC-5 cells were grown and harvested as in Example 90. […] The samples were mixed by agitation and incubated at 37° C. for 2-4 h in a 5% CO2-95% humidity incubator. […] This determines the possible background absorbance of the test compounds. No absorbance for gambogic acid or its analogs or derivatives was found at 490 nm. After the 2-4 h incubation, the samples were read for absorbance as above (ATest).
(§4) Baseline for GI50 (dose for 50% inhibition of cell proliferation) and LC50 (dose for 50% cell death) of initial cell numbers was determined by adding an aliquot of 90 μl of cells or 90 μl of media, respectively, to wells of a 96-well microtiter plate containing 10 μl of a 10% DMSO in RPMI-1640 media solution. […] The samples were mixed by agitation and incubated at 37° C. for 2-4 h in a 5% CO2-95% humidity incubator. Absorbance was read as above, (AT=0) defining absorbance for initial cell number used as baseline in GI50 determinations and (Amin) defining absorbance for media alone used as baseline in LC50 determinations.
(§5) GI50 (dose for 50% inhibition of cell proliferation)
(§6) LC50 (dose for 50% cell death)
(§7) 50=100×[(ATest−Amin)/(AT=0−Amin)]

ZR-75-1 cells = assay: Inhibition of cell proliferation (GI50) and cell death (LC50), ZR-75-1; assay type: cell-based; settings: Homo sapiens, ZR-75-1, 48 h
Procedure: as §3, §4, §5, §6, §7

PC-3 cells = assay: Inhibition of cell proliferation (GI50) and cell death (LC50), PC-3; assay type: cell-based; settings: Homo sapiens, PC-3, 48 h; for CC50: read-out: LC50 (dose for 50% cell death); for GI50: read-out: GI50 (dose for 50% inhibition of cell proliferation)
Procedure: as §3, §4, §5, §6, §7

[3] = tested on: human prostate cancer cell line DU-145; assay: Inhibition of cell proliferation (GI50) and cell death (LC50), DU-145; assay type: cell-based; settings: Homo sapiens, DU-145, 48 h; for CC50: read-out: LC50 (dose for 50% cell death); for GI50: read-out: GI50 (dose for 50% inhibition of cell proliferation)
Procedure: as §3, §4, §5, §6, §7

[4] = tested on: human non-small cell lung cancer cell line A-549; assay: Inhibition of cell proliferation (GI50) and cell death (LC50), A-549; assay type: cell-based; settings: Homo sapiens
Procedure: as §3, §4, §5, §6, §7

[5] = tested on: human small cell lung cancer cell line SHP-77; assay: Inhibition of cell proliferation (GI50) and cell death (LC50), SHP-77; assay type: cell-based; settings: Homo sapiens
Procedure: as §3, §4, §5, §6, §7

HL-60 cells = assay: Inhibition of cell proliferation (GI50) and cell death (LC50), HL-60; assay type: cell-based; settings: Homo sapiens, HL-60, 48 h
Procedure: as §3, §4, §5, §6, §7

[6] = Inhibition of cell proliferation (GI50) and cell death (LC50), MRC-5; assay type: cell-based; settings: human
Procedure: as §3, §4, §5, §6, §7

MRC-5 cells = assay: as above; assay type: cell-based; settings: Homo sapiens, MRC5; MRC-5, 48 h; read-out: GI50 (dose for 50% inhibition of cell proliferation)
Procedure: as §3, §4, §5, §6, §7

KB cell line = settings: reported by Lin et al., Magn. Reson. Chem. 31:340-347 (1993); cited from earlier work
KB-V1 cell line = settings: reported by Lin et al., Magn. Reson. Chem. 31:340-347 (1993); cited from earlier work
[7] = tested on: poly(ADP)ribose polymerase (PARP) cleavage, T47D cells; assay: PARP cleavage western blot, T47D cells; assay type: cell-based, human; settings: 1 μM staurosporine, 2 h and 4 h (FIG. 5C)
Procedure: (§8) Cleavage of the enzyme poly(ADP)ribose polymerase (PARP) by caspase-3 and related proteases is considered to be one of the molecular hallmarks of caspase-mediated apoptosis. Therefore, the ability of gambogic acid to induce PARP cleavage in four different human tumor cell lines (Jurkat cells, HL-60 cells, T47D cells and PC3 cells) was determined.
(§9) Cells were cultured in complete growth medium containing 10% FBS and treated with gambogic acid at concentrations of 2.5 μM or 5 μM for 2 to 4 h. Control cultures were treated with a drug vehicle (DMSO), or the well-characterized apoptosis inducer, staurosporine. At the end of the apoptosis induction period, the cells were harvested, washed once with PBS, quick-frozen on dry ice, and stored at −80° C. The cells were then lysed in a standard immunoblotting lysis buffer and samples of the lysates were electrophoresed on 4% to 20% gradient polyacrylamide gels. The proteins in the gels were then transferred to PVDF membranes and probed with a commercially-available rabbit polyclonal antibody to PARP.

[8] = tested on: poly(ADP)ribose polymerase (PARP) cleavage, PC3 cells; assay: PARP cleavage western blot, PC3 cells; assay type: cell-based, human; settings: 1 μM staurosporine, 2 h and 4 h (FIG. 5D)
Procedure: as §8, §9

[9] = read-out: LC50 (dose for 50% cell death)
[10] = read-out: GI50 (dose for 50% inhibition of cell proliferation)
[11] = ratio of net RFU of test compound to control, 0.16 to 10 μM

SMILES	CC50 (T-47D cells) [nM]	GI50 (T-47D cells) [nM]	CC50 (PC-3 cells) [nM]	GI50 (PC-3 cells) [nM]	CC50 [3] [nM]	GI50 [3] [nM]	CC50 at 48 h [6] [nM]	GI50 (MRC-5 cells) [nM]	also measured
COC(=O)/C(C)=C\CC12OC(C)(C)C3CC(C=C4C(=O)c5c(OC)c6c(c(CC=C(C)C)c5OC431)OC(C)(CCC=C(C)C)C=C6)C2=O (centres unmarked) [Example 6, Methyl-6-methoxy-gambogate]	80	50	500	500	900	500	500	500	EC50 ([1]; Homo sapiens, T47D, sigmoidal dose-response, read-out: T-47D EC50 (caspase activation potency)): 2800 nM; EC50 ([2]; Homo sapiens, sigmoidal dose-response, read-out: PC-3 EC50 (caspase activation potency)): 5000 nM; CC50 (ZR-75-1 cells; [9]): 500 nM; GI50 (ZR-75-1 cells; [10]): 400 nM; CC50 ([4]; A549, 48 h, read-out: LC50 (dose for 50% cell death)): 900 nM; GI50 ([4]; A549, A-549, 48 h, read-out: GI50 (dose for 50% inhibition of cell proliferation)): 500 nM; CC50 ([5]; SHP77, 48 h, read-out: LC50 (dose for 50% cell death)): 500 nM; GI50 ([5]; SHP77, SHP-77, 48 h, read-out: GI50 (dose for 50% inhibition of cell proliferation)): 500 nM; CC50 (HL-60 cells; [9]): 800 nM; GI50 (HL-60 cells; [10]): 100 nM
CC(C)=CCC/C(C)=C/Cc1c(O)c(CC=C(C)C)c2c(c1O)C(=O)C1=CC3CC4C(C)(C)OC(C/C=C(/C)C=O)(C3=O)C14O2 (centres unmarked) [Example 3, Gambogenin]	500	500	5000	5000	5000	2000	5000	3000	T-47D Ratio (caspase activity) [1, 11]: 7.0; PC-3 Ratio (caspase activity) [2, 11]: 2.9
CC(C)=CCc1c2c(c(O)c3c1OC14C(=CC5CC1C(C)(C)OC4(C/C=C(\C)CO)C5=O)C3=O)C=CC(C)(C)O2 (centres unmarked) [isomorellinol, reference compound]									Cytotoxicity against KB cell line (KB cell line): cytotoxic; Cytotoxicity against KB-V1 cell line (KB-V1 cell line): cytotoxic
CN[C@@H]1C[C@H]2O[C@@](C)([C@@H]1OC)n1c3ccccc3c3c4c(c5c6ccccc6n2c5c31)C(=O)NC4 [staurosporine, reference compound]									PARP cleavage [7]: no cleavage of PARP; PARP cleavage [8]: no cleavage of PARP

From patent US6613762B2, “Gambogic acid, analogs and derivatives as activators of caspases and inducers of apoptosis” (Cytovia, Inc., priority 1999, dated 2003)
